Molecular target: BRS peptide (biotinylated peptide consisting of just the BRS of CD3 ε) (Mus musculus, UniProt P22646)
Test: solid-phase ELISA, biotinylated peptide, streptavidin-HRP
Type: binding
Conditions: PBS, room temperature, data not shown

Row | Substance | Kd (20/80 PI(4)P/PC coated on plate) [nM] | Kd (20/80 PI(4,5)P2/PC coated on plate) [nM]
1 | PI(4)P | ~40 | –
2 | PI(4,5)P2 | – | ~40
